Values quoted from earlier work as cited in patent US7560455B2, “3-Amino-4-phenylbutanoic acid derivatives as dipeptidyl peptidase inhibitors for the treatment or prevention of diabetes” (Merck & Co., Inc., priority 2003, dated 2009).
Values belong to the compound of their own block, whether it stands above or below them.

Experiments:
DP-IV = target: T1, DP-IV (Homo sapiens, UniProt P27487)
T1 construct: GRF is rapidly degraded in plasma to GRF[3-44]

hematopoiesis = details: mouse, cyclophosphamide-induced neutropenia
cardiac allograft = details: rats; doubled from day 7 to day 14

T1 sequence (P27487 whole entry): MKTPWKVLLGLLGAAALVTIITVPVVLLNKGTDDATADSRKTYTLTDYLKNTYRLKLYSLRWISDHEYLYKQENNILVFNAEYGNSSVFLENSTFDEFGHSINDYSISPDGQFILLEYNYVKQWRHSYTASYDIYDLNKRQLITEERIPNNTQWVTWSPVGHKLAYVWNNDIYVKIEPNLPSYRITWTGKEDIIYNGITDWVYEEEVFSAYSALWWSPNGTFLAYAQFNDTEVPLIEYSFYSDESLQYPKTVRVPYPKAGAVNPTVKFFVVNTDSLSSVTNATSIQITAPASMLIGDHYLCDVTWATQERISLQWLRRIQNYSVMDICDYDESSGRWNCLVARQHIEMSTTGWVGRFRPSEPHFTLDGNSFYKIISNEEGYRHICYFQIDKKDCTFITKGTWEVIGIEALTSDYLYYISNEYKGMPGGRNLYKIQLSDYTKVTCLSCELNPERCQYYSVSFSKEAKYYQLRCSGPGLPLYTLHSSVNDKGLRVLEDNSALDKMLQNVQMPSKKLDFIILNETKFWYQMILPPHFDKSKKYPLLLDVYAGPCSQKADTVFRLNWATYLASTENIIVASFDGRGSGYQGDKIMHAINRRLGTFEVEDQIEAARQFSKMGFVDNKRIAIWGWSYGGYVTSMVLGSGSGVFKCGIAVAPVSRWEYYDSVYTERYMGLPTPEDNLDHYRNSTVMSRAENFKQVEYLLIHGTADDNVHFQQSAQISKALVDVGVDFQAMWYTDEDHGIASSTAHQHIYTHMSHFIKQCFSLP

- effect on degradation of GRF in plasma to GRF[3-44] (DP-IV): prevented
Compound: diprotin A

Compound: CC(C)[C@H](N)C(=O)N1CCC[C@H]1B(O)O [Val-Boro-Pro]
- effect on hematopoiesis (hematopoiesis): stimulated hematopoiesis

Compound: CC(C)N1CCC(c2ccccc2)(c2ccccc2)CC1 [Prodipine, Pro-Pro-diphenyl-phosphonate]
- cardiac allograft survival (cardiac allograft): 14 day
